Laboratory results reported in paper PMC8151143.

Target: T1, rPtCLec2 (PtCLec2) (Portunus trituberculatus, UniProt A0A7S5QMV0)
T1 construct: gene CLec2; mature peptide (signal peptide residues 1-19 removed) in pET-32a, N-terminal Trx and His tags kept, about 50 kDa; single CRD with QPD motif
T1 sequence (A0A7S5QMV0 20-267): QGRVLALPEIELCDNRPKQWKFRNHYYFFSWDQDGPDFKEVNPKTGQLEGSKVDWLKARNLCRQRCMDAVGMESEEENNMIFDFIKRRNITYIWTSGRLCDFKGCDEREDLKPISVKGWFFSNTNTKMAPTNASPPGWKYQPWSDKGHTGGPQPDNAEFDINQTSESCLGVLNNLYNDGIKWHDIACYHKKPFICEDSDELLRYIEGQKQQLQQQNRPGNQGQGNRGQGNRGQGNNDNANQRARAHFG
Experiment: inhibition of agglutination of FITC-labelled Pseudomonas aeruginosa, fluorescence microscopy
Format: binding
Details: 10 mM CaCl2; 25-200 mM sugar tested; rPtCLec2 100 ug/mL; 30 min preincubation; indirect (competition) read-out

Row | Compound | minimum concentration of carbohydrate that could completely inhibit bacterial agglutinating activity
1 | OC[C@H]1OC(O)[C@H](O)[C@@H](O)[C@H]1O (stereo partly drawn) [D-galactose] | inhibited with the increasing concentration of LPS, D-galactose, and D-mannose
2 | OC[C@H]1OC(O)[C@@H](O)[C@@H](O)[C@@H]1O (stereo partly drawn) [D-mannose] | inhibited with the increasing concentration of LPS, D-galactose, and D-mannose
